# What was measured:
# [1] = Pharmacokinetics from plasma levels after i.p. administration to rats; type: in vivo, rat; conditions: for Vd/F: read-out: Vss/F
# Description: (§1) The pharmacokinetics (PK) of racemic-MSPC and its two individual enantiomers were studied following i.p. (80 mg/kg) to rats and their major PK parameters were estimated.
# (§2) The study details were as described previously[8] and plasma and brain levels of racemic-MSPC and it individual enantiomers were monitored at: 20, 40, 60, 90, 120, 160, 180, 200, 220, 260, 320, and 360 min after dosing.
# (§3) Plasma and brain concentrations of each compound were quantified by an HPLC assay. The HPLC analysis was performed on a system (2695 Separation Module; Waters, Milford, MA) with a photodiode array UV detector (2996 PDA Detector; Waters, Milford, MA). Conditioned as follows: Kinetex, 5 u EVO C18 100 A, 150*4.6 mm column (Phenomenex®, Torrance, CA). Linear gradients (5–95% acetonitrile content) with H2O (0.1% formic acid) and acetonitrile were used as the eluents with flow rate of 1 ml/min at 20 °C. The compounds and the internal standard were detected at 250 nm. Plasma and brain concentrations of MSPC and its two individual enantiomers were quantified by assay that its extraction method was previously described.
# (§4) The PK parameters of each compound were calculated by non-compartmental analysis based on statistical moment theory using the PK software Phoenix Winnonlin Tripos L.P. (Pharsight Co., Mountain View, CA) as previously described. MSPC amount excreted unchanged in the urine was calculated by multiplying its urine concertino by the excreted urine volume for up to 6 h after dosing.
# [2] = Pharmacokinetics from brain levels after i.p. administration to rats; type: in vivo, rat; conditions: for AUCbrain: as used in the BPR calculation; for Vd/F: read-out: Vss/F
# Description: as §1, §2, §3, §4
# [3] = Amount excreted unchanged in urine; type: in vivo, rat; conditions: urine up to 6 h after dosing
# Description: MSPC urine concentrations were quantified by the same HPLC assay as its plasma assay.
# as §4
# hCA I = hCA I (Homo sapiens, UniProt P00915); assay: Stopped flow CO2 hydrase assay, hCA I; type: biochemical; conditions: for Ki: mean from three assays, stopped flow technique
# Description: (§5) The CA inhibition of MSPC and its individual enantiomers were assessed by a stopped flow CO2 hydrase assay as previously described.
# hCA II = hCA II (Homo sapiens, UniProt P00918); assay: Stopped flow CO2 hydrase assay, hCA II; type: biochemical; conditions: for Ki: mean from three assays, stopped flow technique
# Description: as §5
# hCA IV = hCA IV (Homo sapiens, UniProt P22748); assay: Stopped flow CO2 hydrase assay, hCA IV; type: biochemical; conditions: mean from three assays, stopped flow technique
# Description: as §5
# hCA VII = hCA VII (Homo sapiens, UniProt P43166); assay: Stopped flow CO2 hydrase assay, hCA VII; type: biochemical; conditions: mean from three assays, stopped flow technique
# Description: as §5
# Water solubility = type: physicochemical
# [4] = system: maximal electroshock seizure (MES); set-up: method as in PMID 28275953; conditions: cited from earlier work
# [5] = system: maximal electroshock seizure (MES); assay: Rat maximal electroshock (MES) anticonvulsant test; type: in vivo
# Source text: The experiments at the MES model were done in male Sprague-Dawley rats (8 rats per dose) weighing 100−120 g (Charles River Laboratories, Wilmington, MA) as previously described.
# [6] = rat, ip, plasma, i.p. 80 mg/kg, mean
# [7] = rat, plasma, ip, 80 mg/kg, as used in the BPR calculation, i.p. 80 mg/kg, read-out: AUCplasma
# [8] = rat, plasma, ip, 80 mg/kg, plasma, i.p. 80 mg/kg, mean, read-out: AUC
# [9] = rat, ip, brain, rats, i.p. 80 mg/kg, mean
# [10] = plasma, i.p. 80 mg/kg, mean, listed as (R)-enantiomer, 80 mg/kg
# [11] = brain, rats, i.p. 80 mg/kg, mean, listed as (R)-enantiomer, 80 mg/kg
# [12] = brain, rats, i.p. 80 mg/kg, mean, listed as (S)-enantiomer, 80 mg/kg
# Chain of hCA IV (P22748 19-312): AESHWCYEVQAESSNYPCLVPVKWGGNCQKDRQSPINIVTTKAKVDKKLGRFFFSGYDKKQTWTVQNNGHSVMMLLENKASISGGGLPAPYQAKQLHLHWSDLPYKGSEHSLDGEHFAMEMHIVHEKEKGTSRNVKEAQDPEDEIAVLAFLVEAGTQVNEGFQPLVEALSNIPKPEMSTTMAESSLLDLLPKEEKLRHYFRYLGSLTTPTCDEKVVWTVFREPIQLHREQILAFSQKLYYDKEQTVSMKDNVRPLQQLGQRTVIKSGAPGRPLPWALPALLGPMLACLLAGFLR
# Chain of hCA VII (P43166 whole entry): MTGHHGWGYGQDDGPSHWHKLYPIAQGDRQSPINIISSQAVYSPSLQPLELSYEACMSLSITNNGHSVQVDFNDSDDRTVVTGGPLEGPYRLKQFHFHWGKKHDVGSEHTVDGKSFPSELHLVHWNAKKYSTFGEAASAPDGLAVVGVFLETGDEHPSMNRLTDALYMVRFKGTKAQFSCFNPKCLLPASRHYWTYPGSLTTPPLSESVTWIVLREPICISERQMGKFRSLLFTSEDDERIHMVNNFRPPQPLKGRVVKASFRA
# Chain of hCA I (P00915 whole entry): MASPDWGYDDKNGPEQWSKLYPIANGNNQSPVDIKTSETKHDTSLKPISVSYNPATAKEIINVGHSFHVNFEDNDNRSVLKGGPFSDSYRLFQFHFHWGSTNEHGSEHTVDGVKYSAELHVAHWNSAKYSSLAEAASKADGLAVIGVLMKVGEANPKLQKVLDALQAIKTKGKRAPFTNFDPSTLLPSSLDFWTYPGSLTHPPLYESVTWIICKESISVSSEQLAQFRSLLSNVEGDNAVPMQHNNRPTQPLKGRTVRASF
compound,measurement,setting,value
"CCC(C)CCOC(=O)Nc1ccc(S(N)(=O)=O)cc1 (racemic) [MSPC (racemate), 3-Methylpentyl(4-sulphamoylphenyl)carbamate]",half-life,[1]; [6],2.1 h
same,CL/F,"[1]; rat, ip, plasma, i.p. 80 mg/kg, mean, read-out: CL/F (converted)",11.7 mL/min/kg
same,Cmax,"[1]; rat, ip, plasma, i.p. 80 mg/kg, mean, read-out: Cmax",10000 ng/mL
same,Vd/F,[1]; [6],2.2 L/kg
same,Tmax,"[1]; rat, ip, plasma, i.p. 80 mg/kg, mean, read-out: tmax",1.3 h
same,AUC,[1]; [7],28500 ng·h/mL
same,AUC,[1]; [8],29000 ng·h/mL
same,AUCbrain,"[2]; rats, i.p. 80 mg/kg",52.8
same,Kp,"[2]; rat, brain, ip, AUCbrain/AUCplasma, rats, i.p. 80 mg/kg, read-out: brain-to-plasma-(AUC)-ratio (BPR)",1.85
same,half-life,[2]; [9],1.9 h
same,AUC,"[2]; rat, ip, brain, rats, i.p. 80 mg/kg, mean, read-out: AUC",53000 ng·h/mL
same,CL/F,"[2]; rat, ip, brain, rats, i.p. 80 mg/kg, mean, read-out: CL/F (converted)",6.67 mL/min/kg
same,Cmax,"[2]; rat, ip, brain, rats, i.p. 80 mg/kg, mean, read-out: Cmax",18000 ng/mL
same,Vd/F,[2]; [9],1 L/kg
same,Tmax,"[2]; rat, ip, brain, rats, i.p. 80 mg/kg, mean, read-out: tmax",1.6 h
same,dose excreted unchanged in urine,[3],Less than 0.1%
same,Ki,hCA I,77 nM
same,Ki,hCA II,7.6 nM
same,Ki,hCA IV,750 nM
same,Ki,hCA VII,351 nM
same,water solubility,Water solubility,low water solubility
same,rat-MES-ED50 (i.p.),[4]; i.p.,13 mg/kg
same,rat-MES-ED50 (po),[4]; po,28 mg/kg
"CC[C@@H](C)CCOC(=O)Nc1ccc(S(N)(=O)=O)cc1 [(R)-MSPC, 3-methylpentyl(4-sulphamoylphenyl)carbamate]",higher clearance,[1]; compared to (S)-MSPC and racemic-MSPC,29%
same,plasma exposure compared to (S)-MSPC,[1]; i.p. 80 mg/kg,78%
same,AUC,[1]; [10],23 mg/L/h
same,CL/F,[1]; [10],15 mL/min/kg
same,Cmax,[1]; [10],10000 ng/mL
same,Tmax,[1]; [10],1.0 h
same,Vss/F,[1]; [10],3.2 l/kg^−1
same,t1/2,[1]; [10],2.5 h
same,brain-to-plasma-(AUC)-ratio (BPR),"[2]; AUCbrain/AUCplasma, rats, i.p. 80 mg/kg, listed as (R)-enantiomer, 80 mg/kg",2.07
same,AUC,[2]; [11],47 mg/L/h
same,CL/F,[2]; [11],6.7 mL/min/kg
same,Cmax,[2]; [11],16000 ng/mL
same,Tmax,[2]; [11],1.0 h
same,Vss/F,[2]; [11],1.4 l/kg^−1
same,t1/2,[2]; [11],2.3 h
same,times higher BPR than its enantiomer,[2]; versus (S)-MSPC,2.6
same,rat-MES (po)-ED50,[5],30 mg/kg
same,Ki,hCA I,34.1 nM
same,times more effective inhibitor than (S)-MSPC against hCA I,hCA I; ratio of Ki versus (S)-MSPC,3.8
same,Ki,hCA II,3.3 nM
same,times more effective inhibitor than (S)-MSPC against hCA II,hCA II; ratio of Ki versus (S)-MSPC,6.1
same,Ki,hCA IV,810 nM
same,Ki,hCA VII,170 nM
"CC[C@H](C)CCOC(=O)Nc1ccc(S(N)(=O)=O)cc1 [(S)-MSPC, 3-methylpentyl(4-sulphamoylphenyl)carbamate]",AUC,[1]; [7],29000 ng·h/mL
same,half-life,"[1]; rat, plasma, ip, 80 mg/kg, i.p. 80 mg/kg, mean",2.3 h
same,AUC,[1]; [8],29000 ng·h/mL
same,CL/F,"[1]; rat, plasma, ip, 80 mg/kg, plasma, i.p. 80 mg/kg, mean, read-out: CL/F (converted)",11.7 mL/min/kg
same,Cmax,"[1]; rat, plasma, ip, 80 mg/kg, plasma, i.p. 80 mg/kg, mean, read-out: Cmax",7600 ng/mL
same,Vd/F,"[1]; rat, plasma, ip, 80 mg/kg, plasma, i.p. 80 mg/kg, mean",2.3 L/kg
same,Tmax,"[1]; rat, plasma, ip, 80 mg/kg, plasma, i.p. 80 mg/kg, mean, read-out: tmax",1.3 h
same,brain-to-plasma-(AUC)-ratio (BPR),"[2]; AUCbrain/AUCplasma, rats, i.p. 80 mg/kg, listed as (S)-enantiomer, 80 mg/kg",0.79
same,AUCbrain,"[2]; rats, i.p. 80 mg/kg, listed as (S)−enantiomer, 80 mg/kg",22.8
same,AUC,[2]; [12],23 mg/L/h
same,CL/F,[2]; [12],15 mL/min/kg
same,Cmax,[2]; [12],7000 ng/mL
same,Vd/F,"[2]; rat, brain, ip, 80 mg/kg, brain, rats, i.p. 80 mg/kg, mean",2.2 L/kg
same,Tmax,"[2]; rat, brain, ip, 80 mg/kg, brain, rats, i.p. 80 mg/kg, mean, read-out: tmax",0.6 h
same,half-life,"[2]; rat, brain, ip, 80 mg/kg, rats, i.p. 80 mg/kg, mean",1.7 h
same,ED50,"[5]; Rattus norvegicus, po",24 mg/kg
same,Ki,hCA I,130 nM
same,Ki,hCA II,20.3 nM
same,Ki,hCA IV,593 nM
same,Ki,hCA VII,744 nM

# Source: paper PMC6534253, “Stereoselective pharmacokinetic and pharmacodynamic analysis of a CNS-active sulphamoylphenyl carbamate derivative” (Journal of Enzyme Inhibition and Medicinal Chemistry, 2019)
